Test results as given in patent publication US20240300886A1, “ARYLCYCLOHEXYLAMINE DERIVATIVES AND THEIR USE IN THE TREATMENT OF PSYCHIATRIC DISORDERS” (GILGAMESH PHARMACEUTICALS, INC., priority 2021, published 2024).
Like-named read-outs stand apart in the source and are kept apart here.

Assays:
[1] = Metabolic stability in dog liver microsomes (DLM); assay type: in vitro ADME, beagle dogs; conditions: for half-life at 1 μM / microsomal CLint at 1 μM: male, beagle, dog, pooled dog liver microsomes, pH 7.4, 1 μM compound, 0.50 mg protein/mL, NADPH
Protocol: DLM Stability. Pooled DLM from male beagle dogs (XenoTech D1000) were used. Microsomal incubations were carried out in multi-well plates. Liver microsomal incubation medium consisted of PBS (100 mM, pH 7.4), MgCl2 (1 mM), and NADPH (1 mM), with 0.50 mg of liver microsomal protein per mL. Control incubations were performed by replacing the NADPH-cofactor system with PBS. Test compounds (1 μM, final solvent concentration 1.0%) were incubated with microsomes at 37° C. with constant shaking. Six time points over 60 minutes were analyzed, with 60 μL aliquots of the reaction mixture being drawn at each time point. The reaction aliquots were stopped by adding 180 μL of cold (4° C.) acetonitrile containing 200 ng/mL tolbutamide and 200 ng/mL labetalol as internal standards ([…]), followed by shaking for 10 minutes, and then protein sedimentation by centrifugation at 4,000 rpm for 20 minutes at 4° C. Supernatant samples (80 μL) were diluted with water (240 μL) and analyzed for parent compound remaining using a fit-for-purpose liquid chromatography-tandem mass spectrometry (LC-MS/MS) method.
Data Analysis. The elimination constant (kel), half-life (t1/2) and intrinsic clearance (Clint) were determined in a plot of […] versus time, using linear regression analysis.

[2] = molecular target: serotonin transporter (SERT) (Homo sapiens (Human), UniProt P31645); assay: SERT fluorescent substrate uptake inhibition in transfected cells; assay type: cell-based; conditions: for inhibition at 10 µM: stably transfected cells expressing SERT; for ability to inhibit SERT uptake (in words): transfected cells, 10 μM
Protocol: The ability of disclosed compounds to inhibit uptake of monoamines by the serotonin transporter (SERT) was measured using a fluorescent substrate uptake assay in transfected cells (Table 15). […] Considering that inhibitors of SERT are well known to have antidepressant and anxiolytic effects and are among the most commonly prescribed drugs for mood disorders (e.g. fluoxetine, sertraline, etc.), blockade of SERT by certain compounds of the present disclosure is expected to synergize with their NMDAR inhibition to increase therapeutic activity for treating depression and related disorders. […] Further, the ability to tune the ratio between SERT and NMDAR is useful to obtain the optimal therapeutic profile depending on the intended clinical indication.
Uptake Inhibition. The ability of test compounds to block monoamine uptake by SERT was determined using the Neurotransmitter Transporter Uptake Assay Kit manufactured by Molecular Devices (Cat #R8173). Briefly, stably transfected cells expressing SERT were grown and plated into 384-well plates at a concentration of 20,000 cells per well. Plates were then incubated for 16-20 h at 37° C. and 5% CO2. The medium was then aspirated and replaced with 25 μL of assay buffer (20 mM HEPES in HBSS, containing 0.1% BSA) containing the test compounds at the appropriate concentrations. Plates were then centrifuged at 300 rpm for 15 s and then incubated at 37° C. for 30 minutes. At this time, 25 μL of the proprietary fluorescent dye solution was added, the plates were incubated at 37° C. for 60 minutes, and then fluorescence was quantified on a plate reader (excitation wavelength=440 nm, emission wavelength=520 nm). The proprietary dye solution contains a mixture of 1) a fluorescent dye that mimics the endogenous substrate of SERT and is thereby actively transported to the intracellular compartment in the absence of an inhibitor and 2) a masking dye that inhibits the fluorescence of dye 1 in the extracellular compartment. Therefore, the overall fluorescence of the system increases as the fluorescent dye is transported into the cells.

[3] = Comparative metabolism/PK of 2R and deuterated 7R in rats after oral administration; assay type: in vivo, Sprague Dawley rats; conditions: for concentration at 0.083 h / concentration at 0.25 h / concentration at 0.5 h / concentration at 1 h / concentration at 2 h / concentration at 4 h / half-life / Cmax / AUC(0-t): male, Sprague Dawley, rat, 10 mg/kg; for concentration at 0.083 h / concentration at 0.25 h / concentration at 0.5 h / concentration at 1 h / concentration at 2 h / concentration at 4 h: oral; for half-life / Cmax / AUC(0-t): po; for AUC(0-t): read-out: AUC0-last (plasma) (converted)
Protocol: Animals. Male Sprague Dawley rats were used in these studies. Animals were randomly assigned to treatment groups and were fasted for 4 h before dosing.
Drugs. Test compounds 2R and 7R were dissolved in a vehicle consisting of normal saline. They were then administered orally (po) at a dose of 10 mg/kg (calculated based on freebase), and at a volume of 5 mL/kg body weight.
Sample Collection and Bioanalysis. Blood samples (approximately 60 μL) were collected under light isoflurane anesthesia (Surgivet®) from the retro orbital plexus at 0.08, 0.25, 0.5, 1, 2, 4, 8, and 24 h (4 animals per time point). Immediately after blood collection, plasma was harvested by centrifugation at 4,000 rpm for 10 min at 4° C. and samples were stored at −70±10° C. until bioanalysis. Following blood collection, animals were immediately sacrificed, the abdominal vena-cava was cut open, and the whole body was perfused from the heart using 10 mL of normal saline, and brain samples were collected from all animals. After isolation, brain samples were rinsed three times in ice-cold normal saline (for 5-10 seconds/rinse using ˜5-10 mL normal saline in disposable petri dish for each rinse) and dried on blotting paper. Brain samples were homogenized using ice-cold phosphate-buffered saline (pH 7.4) Total homogenate volume was three times the tissue weight. All homogenates were stored at −70±10° C. until bioanalysis. For bioanalysis, 25 μL aliquots of plasma/brain study samples or spiked plasma/brain calibration standards were added to individual pre-labeled micro-centrifuge tubes followed by 100 μL of an internal standard solution (glipizide, 500 ng/mL in acetonitrile) except for blanks, where 100 μL of acetonitrile was added. Samples were vortexed for 5 minutes and then centrifuged for 10 minutes at 4,000 rpm at 4° C. Following centrifugation, 100 μL of each clear supernatant was transferred to a 96 well plate and analyzed with a fit-for-purpose LC-MS/MS method, with authentic samples of each analyte used for calibration and identification. Concentrations of parent compound (2R or 7R) and metabolite 1R were determined in all samples.
Data Analysis. Pharmacokinetic parameters were estimated using the non-compartmental analysis tool of Phoenix® WinNonlin software (Ver 8.0).

[4] = brain, rat brain, 0.083 h after 10 mg/kg po of 2R or 7R, read-out: Mean brain concentration
[5] = brain, rat brain, 0.25 h after 10 mg/kg po of 2R or 7R, read-out: Mean brain concentration
[6] = brain, rat brain, 0.5 h after 10 mg/kg po of 2R or 7R, read-out: Mean brain concentration
[7] = brain, rat brain, 1 h after 10 mg/kg po of 2R or 7R, read-out: Mean brain concentration
[8] = brain, rat brain, 2 h after 10 mg/kg po of 2R or 7R, read-out: Mean brain concentration
[9] = brain, rat brain, 4 h after 10 mg/kg po of 2R or 7R, read-out: Mean brain concentration
[10] = brain, rat brain after 10 mg/kg po of 2R or 7R, parent or metabolite 1R as labelled, read-out: t1/2 (brain)
[11] = plasma, rat plasma, 0.083 h after 10 mg/kg po of 2R or 7R, read-out: Mean plasma concentration
[12] = plasma, rat plasma, 0.25 h after 10 mg/kg po of 2R or 7R, read-out: Mean plasma concentration
[13] = plasma, rat plasma, 0.5 h after 10 mg/kg po of 2R or 7R, read-out: Mean plasma concentration
[14] = plasma, rat plasma, 1 h after 10 mg/kg po of 2R or 7R, read-out: Mean plasma concentration
[15] = plasma, rat plasma, 2 h after 10 mg/kg po of 2R or 7R, read-out: Mean plasma concentration
[16] = plasma, rat plasma, 4 h after 10 mg/kg po of 2R or 7R, read-out: Mean plasma concentration
[17] = plasma, rat plasma after 10 mg/kg po of 2R or 7R, parent or metabolite 1R as labelled
[18] = plasma, rat plasma after 10 mg/kg po of 2R or 7R, parent or metabolite 1R as labelled, read-out: t1/2 (plasma)
[19] = rat brain after 10 mg/kg po of 2R or 7R, parent or metabolite 1R as labelled, listed as 1R as metabolite of 2R
[20] = rat brain after 10 mg/kg po of 2R or 7R, parent or metabolite 1R as labelled, listed as 1R as metabolite of 7R
[21] = rat plasma after 10 mg/kg po of 2R or 7R, parent or metabolite 1R as labelled, listed as 1R as metabolite of 7R
[22] = rat brain after 10 mg/kg po of 2R or 7R, parent or metabolite 1R as labelled

| Structure (SMILES) | half-life at 1 μM [1] [h] | microsomal CLint at 1 μM [1] [µL/min/mg] | inhibition at 10 µM [2] [%] | concentration at 0.083 h [3, 4] [ng/g] | concentration at 0.25 h [3, 5] [ng/g] | concentration at 0.5 h [3, 6] [ng/g] | concentration at 1 h [3, 7] [ng/g] | concentration at 2 h [3, 8] [ng/g] | concentration at 4 h [3, 9] [ng/g] | half-life [3, 10] [h] | concentration at 0.083 h [3, 11] [ng/mL] | concentration at 0.25 h [3, 12] [ng/mL] | concentration at 0.5 h [3, 13] [ng/mL] | concentration at 1 h [3, 14] [ng/mL] | concentration at 2 h [3, 15] [ng/mL] | concentration at 4 h [3, 16] [ng/mL] | Cmax [3, 17] [ng/mL] | AUC(0-t) [3, 17] [ng·h/mL] | half-life [3, 18] [h] | ability to inhibit SERT uptake (in words) [2] | other results |
| --- | --- | --- | --- | --- | --- | --- | --- | --- | --- | --- | --- | --- | --- | --- | --- | --- | --- | --- | --- | --- | --- |
| CNC1(c2ccccc2Cl)CCCCC1=O (racemic) [racemic ketamine, ketamine] | 0.04 | 589 |  |  |  |  |  |  |  |  |  |  |  |  |  |  |  |  |  |  |  |
| N[C@@]1(c2ccc(F)cc2)CCCCC1=O [Compound 1R, (R)-2-amino-2-(4-fluorophenyl)cyclohexan-1-one] |  |  | 10.4 | 56 | 1470 | 3200 | 3500 | 2670 | 1610 | 2.02 | 31 | 889 | 1700 | 2110 | 1410 | 690 | 2110 | 8630 | 3.03 |  | AUC0-last (brain) [3, 19]: 820350 ng·min/g; Cmax (brain) [3, 19]: 3502 ng/g; AUC0-last (brain) [3, 20]: 912802 ng·min/g; Cmax (brain) [3, 20]: 2335 ng/g; t1/2 (brain) [3, 20]: 3.08 h; Mean brain concentration ([3]; rat brain, 0.083 h after 10 mg/kg po of 2R or 7R, listed as 1R as metabolite of 7R): 59 ng/g; Mean brain concentration ([3]; rat brain, 0.25 h after 10 mg/kg po of 2R or 7R, listed as 1R as metabolite of 7R): 1233 ng/g; Mean brain concentration ([3]; rat brain, 0.5 h after 10 mg/kg po of 2R or 7R, listed as 1R as metabolite of 7R): 1623 ng/g; Mean brain concentration ([3]; rat brain, 1 h after 10 mg/kg po of 2R or 7R, listed as 1R as metabolite of 7R): 2075 ng/g; Mean brain concentration ([3]; rat brain, 2 h after 10 mg/kg po of 2R or 7R, listed as 1R as metabolite of 7R): 2335 ng/g; Mean brain concentration ([3]; rat brain, 4 h after 10 mg/kg po of 2R or 7R, listed as 1R as metabolite of 7R): 1176 ng/g; AUC0-last (plasma) [3, 21]: 503548 ng·min/mL; Cmax (plasma) [3, 21]: 1564 ng/mL; Mean plasma concentration ([3]; rat plasma, 0.083 h after 10 mg/kg po of 2R or 7R, listed as 1R as metabolite of 7R): 16 ng/mL; Mean plasma concentration ([3]; rat plasma, 0.25 h after 10 mg/kg po of 2R or 7R, listed as 1R as metabolite of 7R): 525 ng/mL; Mean plasma concentration ([3]; rat plasma, 0.5 h after 10 mg/kg po of 2R or 7R, listed as 1R as metabolite of 7R): 960 ng/mL; Mean plasma concentration ([3]; rat plasma, 1 h after 10 mg/kg po of 2R or 7R, listed as 1R as metabolite of 7R): 1360 ng/mL; Mean plasma concentration ([3]; rat plasma, 2 h after 10 mg/kg po of 2R or 7R, listed as 1R as metabolite of 7R): 1564 ng/mL; Mean plasma concentration ([3]; rat plasma, 4 h after 10 mg/kg po of 2R or 7R, listed as 1R as metabolite of 7R): 705 ng/mL |
| N[C@]1(c2ccc(F)cc2)CCCCC1=O [Compound 1S, (S)-2-amino-2-(4-fluorophenyl)cyclohexan-1-one] | > 2.42 | < 9.6 | 14.9 |  |  |  |  |  |  |  |  |  |  |  |  |  |  |  |  |  |  |
| CN[C@@]1(c2ccc(F)cc2)CCCCC1=O [Compound 2R, (R)-2-(4-fluorophenyl)-2(methylamino)cyclohexan-1-one] | 0.645 | 35.8 | 58.8 |  |  |  |  |  |  | 1.18 | 37 | 760 | 850 | 497 | 142 | 42 | 850 | 1200 | 1.17 | substantial inhibitor, activity in the micromolar range | stability in DLM (in words) [1]: substantially more stable; AUC0-last (brain) [3, 22]: 227268 ng·min/g; Cmax (brain) [3, 22]: 2599 ng/g |
| CN[C@]1(c2ccc(F)cc2)CCCCC1=O [Compound 2S, (S)-2-(4-fluorophenyl)-2-(methylamino)cyclohexan-1-one] | 0.303 | 76 | 36.4 | 43 | 1900 | 2600 | 1510 | 521 | 155 |  |  |  |  |  |  |  |  |  |  |  |  |
| N[C@]1(c2cccc(F)c2)CCCCC1=O [Compound 3S] | 0.862 | 26.8 | -0.21 |  |  |  |  |  |  |  |  |  |  |  |  |  |  |  |  | inactive |  |
